# Biological target: T1, ATM (Homo sapiens, UniProt Q13315)
# T1 construct: detecting phosphorylation of Chk2 in a human non-small cell lung cancer cell line NCI-H460 (ATCC company); host or cells: NCI-H460 human non-small cell lung cancer cells
# Test: ATM inhibition test (phosphorylation of Chk2 generated by ionizing radiation, AlphaScreen SureFire)
# Format: cell-based
# Conditions: phosphorylated Chk2 in NCI-H460 cells, ionizing radiation 8Gy, 1 hour after test compound treatment; read-out: ATM inhibitory activity
# Outline: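 In NCI-H460 cells, radiation-triggered Chk2 phosphorylation (8Gy, 1 h) is detected by AlphaScreen SureFire following 1 h compound exposure.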
# T1 sequence (Q13315 whole entry): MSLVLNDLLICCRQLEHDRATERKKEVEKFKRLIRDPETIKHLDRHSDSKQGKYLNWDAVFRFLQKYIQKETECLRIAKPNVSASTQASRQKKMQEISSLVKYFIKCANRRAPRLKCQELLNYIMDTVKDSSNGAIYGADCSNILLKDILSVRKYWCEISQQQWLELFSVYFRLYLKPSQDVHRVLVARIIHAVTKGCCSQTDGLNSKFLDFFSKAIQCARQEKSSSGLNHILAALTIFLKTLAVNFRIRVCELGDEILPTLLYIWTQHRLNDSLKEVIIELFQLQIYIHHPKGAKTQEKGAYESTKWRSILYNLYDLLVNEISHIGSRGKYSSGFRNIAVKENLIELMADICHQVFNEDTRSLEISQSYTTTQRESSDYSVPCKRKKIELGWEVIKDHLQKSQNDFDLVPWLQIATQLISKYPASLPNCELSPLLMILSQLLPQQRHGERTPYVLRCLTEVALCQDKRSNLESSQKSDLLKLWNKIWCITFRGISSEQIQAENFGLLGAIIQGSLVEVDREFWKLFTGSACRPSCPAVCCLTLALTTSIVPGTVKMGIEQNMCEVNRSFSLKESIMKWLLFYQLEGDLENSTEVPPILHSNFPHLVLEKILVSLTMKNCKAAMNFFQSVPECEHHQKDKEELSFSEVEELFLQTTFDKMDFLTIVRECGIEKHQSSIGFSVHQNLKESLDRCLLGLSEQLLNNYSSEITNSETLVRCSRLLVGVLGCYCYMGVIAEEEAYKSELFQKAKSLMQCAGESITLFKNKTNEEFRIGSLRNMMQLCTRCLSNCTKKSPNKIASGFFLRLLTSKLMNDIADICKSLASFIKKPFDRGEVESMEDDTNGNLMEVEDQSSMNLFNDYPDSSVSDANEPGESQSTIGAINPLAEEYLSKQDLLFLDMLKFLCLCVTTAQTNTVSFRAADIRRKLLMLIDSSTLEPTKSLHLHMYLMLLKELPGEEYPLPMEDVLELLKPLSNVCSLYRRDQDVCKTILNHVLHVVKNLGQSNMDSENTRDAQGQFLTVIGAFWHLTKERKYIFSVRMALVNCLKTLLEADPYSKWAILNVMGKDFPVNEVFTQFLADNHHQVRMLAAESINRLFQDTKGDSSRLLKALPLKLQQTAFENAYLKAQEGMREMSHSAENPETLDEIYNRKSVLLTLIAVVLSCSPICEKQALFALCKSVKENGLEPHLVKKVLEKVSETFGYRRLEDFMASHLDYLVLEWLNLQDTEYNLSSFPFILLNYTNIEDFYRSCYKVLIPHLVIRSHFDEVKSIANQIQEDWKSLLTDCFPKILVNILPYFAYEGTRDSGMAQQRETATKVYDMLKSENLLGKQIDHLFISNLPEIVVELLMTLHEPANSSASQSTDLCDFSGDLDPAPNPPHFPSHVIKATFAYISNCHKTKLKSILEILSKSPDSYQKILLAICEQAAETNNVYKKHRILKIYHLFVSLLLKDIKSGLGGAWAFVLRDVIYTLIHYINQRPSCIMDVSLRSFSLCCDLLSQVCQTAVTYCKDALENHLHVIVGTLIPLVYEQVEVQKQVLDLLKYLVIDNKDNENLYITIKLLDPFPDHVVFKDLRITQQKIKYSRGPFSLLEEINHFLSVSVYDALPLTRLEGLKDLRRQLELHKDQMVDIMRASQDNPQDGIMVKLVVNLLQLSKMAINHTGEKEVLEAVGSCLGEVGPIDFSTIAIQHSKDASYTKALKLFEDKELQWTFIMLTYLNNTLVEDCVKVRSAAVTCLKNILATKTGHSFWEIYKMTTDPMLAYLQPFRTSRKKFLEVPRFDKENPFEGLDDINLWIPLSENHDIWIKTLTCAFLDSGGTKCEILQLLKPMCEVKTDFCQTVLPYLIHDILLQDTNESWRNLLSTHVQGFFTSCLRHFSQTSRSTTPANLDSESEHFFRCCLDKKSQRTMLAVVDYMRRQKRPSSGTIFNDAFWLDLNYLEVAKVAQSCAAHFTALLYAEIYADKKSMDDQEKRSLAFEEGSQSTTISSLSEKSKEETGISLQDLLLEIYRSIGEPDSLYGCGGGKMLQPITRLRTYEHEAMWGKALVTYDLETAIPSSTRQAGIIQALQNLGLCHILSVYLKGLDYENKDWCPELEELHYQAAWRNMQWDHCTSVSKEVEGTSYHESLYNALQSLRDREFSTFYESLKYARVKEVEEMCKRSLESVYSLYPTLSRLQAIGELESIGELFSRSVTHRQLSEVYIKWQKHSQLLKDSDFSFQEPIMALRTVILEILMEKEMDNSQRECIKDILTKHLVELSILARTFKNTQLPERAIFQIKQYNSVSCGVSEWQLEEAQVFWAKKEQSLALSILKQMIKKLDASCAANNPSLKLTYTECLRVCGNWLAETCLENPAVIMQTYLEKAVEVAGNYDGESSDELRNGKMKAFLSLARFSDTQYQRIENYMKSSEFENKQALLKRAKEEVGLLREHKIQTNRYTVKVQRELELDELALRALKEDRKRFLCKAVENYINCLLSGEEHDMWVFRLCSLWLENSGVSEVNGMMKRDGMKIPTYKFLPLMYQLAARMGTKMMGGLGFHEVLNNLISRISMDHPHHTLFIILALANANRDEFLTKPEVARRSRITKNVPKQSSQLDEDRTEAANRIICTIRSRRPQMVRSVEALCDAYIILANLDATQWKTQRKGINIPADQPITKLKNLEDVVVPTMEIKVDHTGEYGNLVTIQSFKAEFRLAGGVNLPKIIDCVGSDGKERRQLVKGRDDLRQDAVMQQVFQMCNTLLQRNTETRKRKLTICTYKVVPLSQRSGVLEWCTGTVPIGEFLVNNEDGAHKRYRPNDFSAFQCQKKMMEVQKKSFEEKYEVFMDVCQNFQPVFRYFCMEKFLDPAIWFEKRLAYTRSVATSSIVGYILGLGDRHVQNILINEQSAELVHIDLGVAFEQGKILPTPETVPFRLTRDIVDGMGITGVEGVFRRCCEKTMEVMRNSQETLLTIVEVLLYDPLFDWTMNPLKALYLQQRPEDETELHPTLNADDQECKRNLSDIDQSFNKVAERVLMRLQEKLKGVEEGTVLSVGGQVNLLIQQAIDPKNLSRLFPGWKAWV
row,SMILES,IC50 [nM]
1,"O=C(CN1CCCOCC1)Nc1ccc2c(c1)Sc1cccc(-c3cc(N4CCOCC4)cc(=O)[nH]3)c1S2 [Example 1-7-3, N-(6-(4-morpholino-6-oxo-1,6-dihydropyridin-2-yl)thianthren-2-yl)-2-(1,4-oxazepan-4-yl)acetamide]",500 to 2000
2,"CC(CN1CCOCC1)C(=O)Nc1ccc2c(c1)Sc1cccc(-c3cc(N4CCOCC4)cc(=O)[nH]3)c1S2 (centres unmarked) [Example 8-3, 2-Methyl-3-morpholino-N-(6-(4-morpholino-6-oxo-1,6-dihydropyridin-2-yl)thianthren-2-yl)propanamide]",500 to 2000
3,"O=c1cc(N2CCOCC2)cc(-c2cccc3c2Sc2ccc(NCCN4CCSCC4)cc2S3)[nH]1 [Example 1-16-4, 4-Morpholino-6-(7-((2-thiomorpholinoethyl)amino)thianthren-1-yl)pyridin-2(1H)-one]",< 100
4,"O=c1cc(N2CCOCC2)cc(-c2cccc3c2Sc2ccc(NCc4ccncn4)cc2S3)[nH]1 [Example 1-12-36, 4-Morpholino-6-(7-((pyrimidin-4-ylmethyl)amino)thianthren-1-yl) pyridin-2(1H)-one]",100 to 500
5,"O=c1cc(N2CCOCC2)cc(-c2cccc3c2Oc2ccc(NCc4cnccn4)cc2C3)[nH]1 [Example 2-3-5, 4-Morpholino-6-(7-((pyrazin-2-ylmethyl)amino)-9H-xanthen-4-yl)pyridin-2(1H)-one]",100 to 500
6,"O=c1cc(N2CCOCC2)cc(-c2cccc3c2Sc2ccc(NCc4cscn4)cc2S3)[nH]1 [Example 1-12-53, 4-Morpholino-6-(7-((thiazol-4-ylmethyl)amino)thianthren-1-yl)pyridin-2 (1H)-one]",100 to 500
7,"O=c1cc(N2CCOCC2)cc(-c2cccc3c2Oc2ccc(NCc4cncc(C5CC5)c4)cc2S3)[nH]1 [Example 4-8-7, 6-(8-(((5-Cyclopropylpyridin-3-yl)methyl)amino)phenoxathiin-4-yl)-4-morpholino pyridin-2(1H)-one]",100 to 500
8,"Cc1cnc(CNc2ccc3c(c2)Cc2cccc(-c4cc(N5CCOCC5)cc(=O)[nH]4)c2O3)cn1 [Example 2-14-76, 6-(7-(((5-Methylpyrazin-2-yl)methyl)amino)-9H-xanthen-4-yl)-4-morpholino pyridin-2(1H)-one]",100 to 500
9,"Cc1ccnc(C(CN2CCOCC2)Nc2ccc3c(c2)Sc2cccc(-c4cc(N5CCOCC5)cc(=O)[nH]4)c2S3)n1 (centres unmarked) [Example 1-13-18, 6-(7-((1-(4-Methylpyrimidin-2-yl)-2-morpholinoethyl)amino)thianthren-1-yl)-4-morpholinopyridin-2(1H)-one]",500 to 2000
10,O=c1cc(N2CCOCC2)cc(-c2cccc3c2Oc2ccc(NC4CCCN(CCc5ccccc5)C4)cc2S3)[nH]1 (centres unmarked) [Example 4-6-3],100 to 500
11,"CC[C@H](N)C(C)Nc1ccc2c(c1)Sc1cccc(-c3cc(N4CCOCC4)cc(=O)[nH]3)c1S2 (stereo partly drawn) [Example 1-20-5, 6-(7-(((3S)-3-Aminopentan-2-yl)amino)thianthren-1-yl)-4-morpholino pyridin-2(1H)-one]",100 to 500
12,"Cc1ccnc(C(CO)Nc2ccc3c(c2)Sc2cccc(-c4cc(N5CCOCC5)cc(=O)[nH]4)c2S3)c1 (single isomer, unassigned) [Example 1-12-138-1, 6-(7-((2-hydroxy-1-(4-methylpyridin-2-yl)ethyl)amino)thianthren-1-yl)-4-morpholinopyridin-2(1H)-one]",100 to 500
13,"COc1cncc(CN2CCC(Nc3ccc4c(c3)Sc3cccc(-c5cc(N6CCOCC6)cc(=O)[nH]5)c3S4)CC2)c1 [Example 1-24-16, 6-(7-((1-((5-Methoxypyridin-3-yl)methyl)piperidin-4-yl)amino)thianthren-1-yl)-4-morpholinopyridin-2(1H)-one]",100 to 500
14,"O=c1cc(N2CCOCC2)cc(-c2cccc3c2Oc2ccc(NC4CCN(c5ccncc5)CC4)cc2C3)[nH]1 [Example 2-2-22, 4-Morpholino-6-(7-((1-(pyridin-4-yl)piperidin-4-yl)amino)-9H-xanthen-4-yl) pyridin-2(1H)-one]",< 100
15,"COc1ccc(CCN2CCC(Nc3ccc4c(c3)Cc3cccc(-c5cc(N6CCOCC6)cc(=O)[nH]5)c3O4)CC2)cn1 [Example 2-28-38, 6-(7-((1-(2-(6-Methoxypyridin-3-yl)ethyl)piperidin-4-yl)amino)-9H-xanthen-4-yl)-4-morpholino pyridin-2(1H)-one]",100 to 500
16,"CC(Nc1ccc2c(c1)Cc1cccc(-c3cc(N4CCOCC4)cc(=O)[nH]3)c1O2)c1ncc(CO)cn1 (centres unmarked) [Example 2-14-66, 6-(7-((1-(5-(Hydroxymethyl)pyrimidin-2-yl)ethyl)amino)-9H-xanthen-4-yl)-4-morpholino pyridin-2(1H)-one]",500 to 2000
17,"CCN(CC)CC(Nc1ccc2c(c1)Sc1cccc(-c3cc(N4CCOCC4)cc(=O)[nH]3)c1S2)c1cnc(C)cn1 (centres unmarked) [Example 1-33, 6-(7-((2-(diethylamino)-1-(5-methylpyrazin-2-yl)ethyl)amino)thianthren-1-yl)-4-morpholinopyridin-2(1H)-one]",100 to 500
18,"O=c1cc(N2CCOCC2)cc(-c2cccc3c2Sc2ccc(NCCN4CCC(F)(F)C4)cc2S3)[nH]1 [Example 1-10-2, 6-(7-((2-(3,3-Difluoropyrrolidin-1-yl)ethyl)amino)thianthren-1-yl)-4-morpholinopyridin-2(1H)-one]",100 to 500

# The next lines start with the values.
row,IC50 [nM],SMILES
1,100 to 500,"O=c1cc(N2CCOCC2)cc(-c2cccc3c2Sc2ccc(NC4CCN(C5CCOC5)C4)cc2S3)[nH]1 (centres unmarked) [Example 1-24-14, 4-Morpholino-6-(7-((1-(tetrahydrofuran-3-yl)pyrrolidin-3-yl)amino)thianthren-1-yl)pyridin-2 (1H)-one]"
2,100 to 500,"O=c1cc(N2CCOCC2)cc(-c2cccc3c2Sc2ccc(NCCCCN4CCOCC4)cc2S3)[nH]1 [Example 1-9-4, 4-Morpholino-6-(7-((4-morpholinobutyl)amino)thianthren-1-yl)pyridin-2(1H)-one]"
3,100 to 500,"CC(C)(O)CN1CCC(Nc2ccc3c(c2)Sc2cccc(-c4cc(N5CCOCC5)cc(=O)[nH]4)c2S3)CC1 [Example 1-29-1, 6-(7-((1-(2-hydroxy-2-methylpropyl)piperidin-4-yl)amino)thianthren-1-yl)-4-morpholinopyridin-2(1H)-one]"
4,100 to 500,"CC(CNC1CCCC1)Nc1ccc2c(c1)Sc1cccc(-c3cc(N4CCOCC4)cc(=O)[nH]3)c1S2 (centres unmarked) [Example 1-13-8, 6-(7-((1-(Cyclopentylamino)propan-2-yl)amino)thianthren-1-yl)-4-morpholino pyridin-2 (1H)-one]"
5,100 to 500,"CCC(Nc1ccc2c(c1)Sc1cccc(-c3cc(N4CCOCC4)cc(=O)[nH]3)c1S2)[C@@H](N)CC (stereo partly drawn) [Example 1-20-6, 6-(7-(((4S)-4-Aminohexan-3-yl)amino)thianthren-1-yl)-4-morpholino pyridin-2(1H)-one]"
6,100 to 500,"O=c1cc(N2CCOCC2)cc(-c2cccc3c2Oc2ccc(NC4CCC5(CC4)OCCO5)cc2C3)[nH]1 [Example 2-2-62, 6-(7-(1,4-Dioxaspiro[4.5]decan-8-ylamino)-9H-xanthen-4-yl)-4-morpholino pyridin-2(1H)-one]"
7,100 to 500,"O=c1cc(N2CCOCC2)cc(-c2cccc3c2Oc2ccc(NCc4ccncc4Cl)cc2C3)[nH]1 [Example 2-2-25, 6-(7-(((3-Chloropyridin-4-yl)methyl)amino)-9H-xanthen-4-yl)-4-morpholino pyridin-2 (1H)-one]"
8,100 to 500,"COc1cncc(C(C)Nc2ccc3c(c2)Cc2cccc(-c4nc(N5CCOCC5)cc(=O)[nH]4)c2O3)c1 (centres unmarked) [Example 2-52-4, 2-(7-((1-(5-Methoxypyridin-3-yl)ethyl)amino)-9H-xanthen-4-yl)-6-morpholinopyrimidine-4(3H)-one]"
9,100 to 500,"COc1cnccc1CNc1ccc2c(c1)Cc1cccc(-c3cc(N4CCOCC4)cc(=O)[nH]3)c1O2 [Example 2-14-9, 6-(7-(((3-Methoxypyridin-4-yl)methyl)amino)-9H-xanthen-4-yl)-4-morpholino pyridin-2(1H)-one]"
10,500 to 2000,O=c1cc(N2CCOCC2)cc(-c2cccc3c2Oc2ccc(NCC4CCN(c5ccncc5)CC4)cc2C3)[nH]1 [Example 2-21-5]
11,100 to 500,"CNc1ncccc1CNc1ccc2c(c1)Sc1cccc(-c3cc(N4CCOCC4)cc(=O)[nH]3)c1O2 [Example 4-8-21, 6-(8-(((2-(Methylamino)pyridin-3-yl)methyl)amino)phenoxathiin-4-yl)-4-morpholino pyridin-2(1H)-one]"
12,100 to 500,"Cc1ccnc(C(CF)Nc2ccc3c(c2)Sc2cccc(-c4cc(N5CCOCC5)cc(=O)[nH]4)c2S3)c1 (centres unmarked) [Example 1-12-133, 6(7-((2-Fluoro-1-(4-methylpyridin-2-yl)ethyl)amino)thianthren-1-yl)-4-morpholino pyridin-2(1H)-one]"
13,500 to 2000,"CC(CN1CCO[C@@H](C)C1)Nc1ccc2c(c1)Sc1cccc(-c3cc(N4CCOCC4)cc(=O)[nH]3)c1S2 (stereo partly drawn) [Example 1-43-8, 6-(7-((4-((S)-2-Methylmorpholino)propan-2-yl)amino)thianthren-1-yl)-4-morpholino pyridin-2(1H)-one]"
14,< 100,"Cc1ccc(C(Nc2ccc3c(c2)Sc2cccc(-c4cc(N5CCOCC5)cc(=O)[nH]4)c2S3)[C@H]2CN(C)CCO2)nc1 (single isomer, unassigned) [Example 1-56-12]"
15,< 100,"Cc1cccc(C(CCN2CCCCC2)Nc2ccc3c(c2)Sc2cccc(-c4cc(N5CCOCC5)cc(=O)[nH]4)c2S3)n1 (centres unmarked) [Example 1-34-3, 6-(7-((1-(6-Methylpyridin-2-yl)-3-(piperidin-1-yl)propyl)amino)thianthren-1-yl)-4-morpholino pyridin-2(1H)-one]"
16,< 100,"Cc1ccc(C(Nc2ccc3c(c2)Sc2cccc(-c4cc(N5CCOCC5)cc(=O)[nH]4)c2S3)C2CCN(CCF)CC2)nc1 (centres unmarked) [Example 1-56-6, 6-(7-(((1-(2-Fluoroethyl)piperidin-4-yl)(5-methylpyridin-2-yl)methyl)amino)thianthren-1-yl)-4-morpholino pyridin-2(1H)-one]"
17,500 to 2000,"O=c1cc(N2CCOCC2)cc(-c2cccc3c2Oc2ccccc2S3)[nH]1 [Example 4-12, 4-Morpholino-6-(phenoxathiin-4-yl)pyridin-2(1H)-one]"
